In one assay the target is T1, inactive Stat1 monomer (Homo sapiens, UniProt P42224).
T1 construct: made in house; host or cells: Sf-9 insect cells infected with baculovirus
The assay is described as follows: Inactive STAT monomer added to activated Stat3 before EMSA (titration of compound). Type of assay: binding. The settings on record: monomer added to activated Stat3, pre-incubated with compound 30 min. A general note: A gel shift assay detects complexes by their altered migration in electrophoresis.

In another assay the target is T2, Stat1 (Mus musculus, UniProt P42225).
T2 construct: Nuclear extract preparation from NIH3T3 stimulated by rhIL-6, NIH3T3/hEGFR stimulated by rhEGF; endogenous in cells; host or cells: NIH3T3/hEGFR fibroblasts stimulated with rhEGF (nuclear extract)
T2 sequence (P42225 2-749 limits assumed): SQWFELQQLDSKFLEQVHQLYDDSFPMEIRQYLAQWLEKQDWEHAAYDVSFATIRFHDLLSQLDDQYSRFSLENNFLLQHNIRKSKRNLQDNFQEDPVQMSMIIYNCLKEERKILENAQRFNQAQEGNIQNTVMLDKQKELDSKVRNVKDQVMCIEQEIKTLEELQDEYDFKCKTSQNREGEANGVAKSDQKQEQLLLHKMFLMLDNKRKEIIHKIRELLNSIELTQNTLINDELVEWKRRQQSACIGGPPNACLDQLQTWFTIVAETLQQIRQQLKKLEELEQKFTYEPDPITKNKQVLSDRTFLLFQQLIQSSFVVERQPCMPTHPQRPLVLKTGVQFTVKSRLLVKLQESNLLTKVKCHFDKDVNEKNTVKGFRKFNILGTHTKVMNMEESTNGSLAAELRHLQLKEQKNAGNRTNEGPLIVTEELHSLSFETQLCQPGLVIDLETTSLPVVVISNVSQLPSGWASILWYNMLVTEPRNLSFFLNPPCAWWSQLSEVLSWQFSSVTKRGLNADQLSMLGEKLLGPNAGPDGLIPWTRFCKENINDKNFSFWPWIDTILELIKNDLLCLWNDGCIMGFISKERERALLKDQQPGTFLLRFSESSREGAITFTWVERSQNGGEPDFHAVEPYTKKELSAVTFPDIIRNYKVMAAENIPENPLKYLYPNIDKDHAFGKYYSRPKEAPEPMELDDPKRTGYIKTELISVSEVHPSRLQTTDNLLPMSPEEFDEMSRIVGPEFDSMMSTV
Nature of the assay: In vitro Stat1 DNA-binding activity assay, EMSA with hSIE or MGFe probe. Here is the method:
FIGS. 1A-1E. Inhibition of in vitro Stat3 DNA-binding activity by a platinum complex. Nuclear extracts or cell lysates containing activated Stat1, Stat3 and Stat5, or E2F1 prepared from NIH3T3/hEGFR that are stimulated with EGF or Sf-9 insect cells that are infected with baculovirus expressing Stat1, Stat3, Stat5, or E2F1, respectively, were treated with or without the indicated concentrations of platinum complex, PLATINUM-401 or Cisplatin, for 30 min at room temperature prior to incubation with radiolabeled oligonucleotide probes, and subjected to EMSA analysis. (FIG. 1A) (i) Stat1 and Stat3 binding activities to hSIE probe, (ii) Stat1 and Stat5 binding activities to MGFe probe, and (iii) plot of % oligonucleotide probe-STAT:STAT complexes versus concentration of PLATINUM-401. […] Positions of STAT: STAT-DNA complexes in gel are labeled. In (A) to (C), the control lanes represent DMSO (vehicle)-treatment.
Nuclear extract preparation and gel shift assays—Nuclear extract preparation from NIH3T3 stimulated by rhIL-6, NIH3T3/hEGFR stimulated by rhEGF, v-Src-transformed fibroblasts (NIH3T3/v-Src) or tumor cell lines and electrophoretic mobility shift assay were carried out as previously described (Turkson et al., 1998; Garcia et al., 1997; Yu et al., 1995). The ^32P-labeled oligonucleotide probes used are hSIE (high affinity sis-inducible element from the c-fos gene, m67 variant, 5′-[…]) (SEQ ID NO:1) that binds Stat1 and Stat3 (Garcia et al., 1997; Wagner et al., 1990) and MGFe (mammary gland factor element from the bovine β-casein gene promoter, 5′-AGATTTCTAGGAATTCAA) (SEQ ID NO:2) for Stat1 and Stat5 binding (49,50). Except where indicated, inhibitor compound was pre-incubated with the nuclear extract for 30 min at room temperature prior to incubation with radiolabeled probe.
Compounds from the NCI 2000 diversity set were screened for inhibition of Stat3 signaling in an in vitro DNA-binding activity assay based on analysis by electrophoretic mobility shift assay (EMSA). […]

A further assay concerns inactive Stat5 monomer. The assay is described as follows: Inactive STAT monomer added to activated Stat3 before EMSA (titration of compound). Type of assay: binding.

By IC50 is commonly meant the concentration that inhibits the measured activity by half. Low values mean greater potency, high ones weaker potency.

T1 sequence (P42224 whole entry): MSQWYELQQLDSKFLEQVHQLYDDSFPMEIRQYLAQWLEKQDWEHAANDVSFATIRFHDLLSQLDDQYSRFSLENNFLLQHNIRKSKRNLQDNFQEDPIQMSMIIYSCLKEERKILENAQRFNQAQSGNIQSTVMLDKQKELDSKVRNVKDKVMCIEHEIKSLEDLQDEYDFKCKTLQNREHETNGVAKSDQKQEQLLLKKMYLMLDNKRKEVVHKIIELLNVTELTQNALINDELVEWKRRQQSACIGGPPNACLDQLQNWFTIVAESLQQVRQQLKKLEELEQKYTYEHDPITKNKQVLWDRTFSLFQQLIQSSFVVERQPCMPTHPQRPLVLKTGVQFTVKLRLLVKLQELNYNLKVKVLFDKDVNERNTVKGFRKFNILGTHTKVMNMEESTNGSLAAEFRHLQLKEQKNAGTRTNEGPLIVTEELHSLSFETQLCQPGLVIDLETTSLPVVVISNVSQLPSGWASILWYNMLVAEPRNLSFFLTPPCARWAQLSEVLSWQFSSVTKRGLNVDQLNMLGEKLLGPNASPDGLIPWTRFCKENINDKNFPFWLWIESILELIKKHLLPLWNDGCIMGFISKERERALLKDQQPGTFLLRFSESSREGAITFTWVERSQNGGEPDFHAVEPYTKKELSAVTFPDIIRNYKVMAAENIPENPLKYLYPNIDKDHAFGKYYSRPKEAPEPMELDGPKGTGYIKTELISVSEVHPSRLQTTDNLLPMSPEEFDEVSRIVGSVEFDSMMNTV

On to `CC(O)CN1CCN(CC(C)O)CC1` (stereo not shown) [PLATINUM-401], for which the “interaction with inactive Stat1 monomer” value on inactive Stat1 monomer is “also interacts”. Further, the IC50 at Stat1 was determined as 4.1 µM. Further, the “effect on DNA-binding activity of Stat1:Stat1 homodimer” value on Stat1 (pre-incubated 30 min before probe) is on record as “to a lesser extent”. In the assay on inactive Stat5 monomer, the “influence of inactive Stat5 monomer on compound's effect on Stat3 DNA-binding activity” value is “failed to significantly influence”.

Values taken from patent publication US11571418B2, “Platinum compounds that inhibit constitutive STAT3 signaling and induce cell cycle arrest and apoptosis of malignant cells” (H. LEE MOFFITT CANCER CENTER AND RESEARCH INSTITUTE, INC., priority 2011, dated 2023).
